Reference: patent US10908171B2, “Additive channels” (Emulate Inc., priority 2016, dated 2021)

Test system: platelets
Experiment: Platelet activation quality control by p-selectin expression
Type: cell-based, human
Settings: control blood
Method: To test for a thrombic event, blood was collected from 4 donors, the as blood alone or blood treated with hu5C8 alone (240 μg/ml), sCD40L (10 ng/ml) alone or with combined hu5C8/sCD40L was incubated for 20 minutes at room temperature. Each sample was further incubated for 5 minutes with fluorescent labels for platelets and fibrinogen. As a standard quality control, the control blood was tested for platelet activation using p-selection expression. We confirmed that platelets in control blood were not activated but upon activation by ADP, over 90% of platelet was positive for p-selectin.

`Nc1ncnc2c1ncn2[C@@H]1O[C@H](COP(=O)(O)OP(=O)(O)O)[C@@H](O)[C@H]1O` [ADP] was tested, and the “platelets positive for p-selectin upon activation” value was “over 90%”.
